Results from patent US20260008768A1, “UREA DERIVATIVES FOR INHIBITING NLRP3 AND USES THEREOF” (VENTUS THERAPEUTICS U.S., INC., priority 2023, published 2026).

Target: human NLRP3 (Homo sapiens, UniProt Q96P20)
Test: Scintillation Proximity (SPA) NLRP3 Assay, displacement of 3H-MCC950
Format: binding
Details: Table B, activity class; displacement of 3H-MCC950 from human NLRP3
Protocol: Improved NLRP3 binding correlates with increased affinity for NLRP3 protein and, by extension, increased ability to interfere with its function.
SPA experiments were conducted in a total volume of 20 μL assay buffer containing 20 mM HEPES pH 7.5, 150 mM NaCl, 5 mM MgCl2, 0.01% (v/v) Tween-20, 0.01% (w/v) bovine serum albumin (BSA) and 100 μM of adenosine diphosphate (ADP). A human NLRP3 protein (350 nM) (see, e.g., Sharif et al., Nature (2019) 570:338-343; Hochheiser et al., Nature (2022) 604:184-189; Adreeva et al., Cell (2021) 184:6299-6312; Wang et al., J Exp. Med. (2021) 219:e20211147) was incubated with various concentration of compounds in 5% dimethyl sulfoxide (DMSO) final for 15 minutes at room temperature in a white half-area 96 well OptiPlate (PerkinElmer #6002290) before adding 125 nM final of 3H-MCC950. After the addition of radiolabeled MCC950, the plate was incubated for 60 minutes at room temperature before adding 0.25 mg/ml of copper-coated polyvinyltoluene SPA beads (PerkinElmer #RPNQ0095). The plate was then transferred to a microplate counter (PerkinElmer 2450 Microbeta) to collect binding data. Binding data was analyzed 6 hrs post-PVT bead addition to allow sufficient time to reach equilibrium. Specific binding was calculated from averaged duplicates by subtracting signal from wells without NLRP3 protein.
SPA NLRP3 IC50 assay results are provided in Table B. “A” activity=<1 uM; “B” activity=1-10 uM; “C” activity=>10-50 uM; “D” activity=>50 uM-100 uM; and “E” activity=>100 uM.

human NLRP3, sequence (Q96P20 whole entry): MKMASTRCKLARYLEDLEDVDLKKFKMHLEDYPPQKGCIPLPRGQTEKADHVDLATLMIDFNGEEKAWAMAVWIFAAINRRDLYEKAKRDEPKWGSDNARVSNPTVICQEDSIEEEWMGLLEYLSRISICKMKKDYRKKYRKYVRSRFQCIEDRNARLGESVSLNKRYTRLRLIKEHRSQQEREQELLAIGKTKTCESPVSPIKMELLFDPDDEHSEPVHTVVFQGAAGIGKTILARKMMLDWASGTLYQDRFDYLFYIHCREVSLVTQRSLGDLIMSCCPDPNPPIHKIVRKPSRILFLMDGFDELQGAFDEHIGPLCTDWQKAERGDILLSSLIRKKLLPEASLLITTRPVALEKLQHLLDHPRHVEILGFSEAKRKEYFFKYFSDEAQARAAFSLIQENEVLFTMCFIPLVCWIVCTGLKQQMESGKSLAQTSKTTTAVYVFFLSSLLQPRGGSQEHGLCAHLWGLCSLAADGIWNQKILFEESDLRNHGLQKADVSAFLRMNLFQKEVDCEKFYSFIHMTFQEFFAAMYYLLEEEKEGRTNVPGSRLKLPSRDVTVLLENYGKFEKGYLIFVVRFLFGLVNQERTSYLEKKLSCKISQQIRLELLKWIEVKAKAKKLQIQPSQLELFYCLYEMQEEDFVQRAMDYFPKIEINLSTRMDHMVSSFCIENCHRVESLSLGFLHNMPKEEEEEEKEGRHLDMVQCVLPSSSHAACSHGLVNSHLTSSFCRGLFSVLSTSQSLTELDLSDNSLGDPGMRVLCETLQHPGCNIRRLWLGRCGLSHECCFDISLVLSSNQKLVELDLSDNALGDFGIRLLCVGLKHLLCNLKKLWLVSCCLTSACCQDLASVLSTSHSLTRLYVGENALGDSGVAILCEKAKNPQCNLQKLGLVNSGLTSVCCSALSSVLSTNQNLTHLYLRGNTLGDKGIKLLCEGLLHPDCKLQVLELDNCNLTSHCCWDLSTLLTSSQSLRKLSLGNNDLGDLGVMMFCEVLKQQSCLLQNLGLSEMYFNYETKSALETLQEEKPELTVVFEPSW

| SMILES | IC50 [µM] |
| --- | --- |
| C[C@H]1CCN(c2nnn[nH]2)C[C@H](NC(=O)N(C)c2ccc(C(F)(F)F)cc2F)C1 (single isomer, unassigned) [13C*] | > 100 |
| C[C@H]1CCN(c2nnn[nH]2)C[C@@H](NC(=O)N(C)c2ccc(OC(F)F)c(F)c2)C1 (single isomer, unassigned) [15D*] | 1 to 10 |
| C[C@H]1CCN(c2nnn[nH]2)C[C@H](NC(=O)N(C)c2c(F)cc(OC(F)(F)F)cc2F)C1 (single isomer, unassigned) [41C*] | 50 to 100 |
| C[C@H]1C[C@@H](NC(=O)N(C)c2ccc3cnoc3c2)CN(c2nnn[nH]2)C1 [Compound 38A, 1-(benzo[d]isoxazol-6-yl)-1-methyl-3-((3R,5S)-5-methyl-1-(1H-tetrazol-5-yl)piperidin-3-yl)urea] | 10 to 50 |
| C[C@@H]1CCN(c2nnn[nH]2)C[C@@H](NC(=O)N(C)c2cnc(C(F)(F)F)nc2)C1 (single isomer, unassigned) [31B*] | 10 to 50 |
| C[C@H]1CCN(c2nnn[nH]2)C[C@@H](NC(=O)N(C)c2ccc(C(F)F)cc2F)C1 (single isomer, unassigned) [18D*] | 10 to 50 |
| C[C@H]1C[C@@H](NC(=O)N(C)c2ccc(C(F)(F)F)c(F)c2)[C@@H]2CC[C@H]1N2c1nnn[nH]1 (single isomer, unassigned) [49C*] | 50 to 100 |
| C[C@H]1C[C@H](NC(=O)N(C)c2ccc(OC(F)F)cc2)[C@@H]2CC[C@H]1N2c1nnn[nH]1 (single isomer, unassigned) [42D*] | 10 to 50 |
| C[C@@H]1CCN(c2nnn[nH]2)C[C@@H](NC(=O)N(C)c2ccc(OC(F)(F)F)c(OC(F)F)c2)C1 (single isomer, unassigned) [25B*] | 1 to 10 |
| C[C@@H]1CCN(c2nnn[nH]2)C[C@@H](NC(=O)N(C)c2ccc(OC(F)(F)F)c(F)c2F)C1 (single isomer, unassigned) [26B*] | 1 to 10 |
| C[C@@H]1CCN(c2nnn[nH]2)C[C@@H](NC(=O)N(C)c2ccc(C(F)(F)F)cc2F)C1 (single isomer, unassigned) [13B*] | 1 to 10 |
| C[C@H]1C[C@H](NC(=O)N(C)c2ccc(C3CC3)c(F)c2)[C@@H]2CC[C@H]1N2c1nnn[nH]1 (single isomer, unassigned) [54D*] | 10 to 50 |
| C[C@@H]1CCN(c2nnn[nH]2)C[C@H](NC(=O)N(C)c2ccc(Cl)cn2)C1 (single isomer, unassigned) [28A*] | 1 to 10 |
| C[C@H]1CCN(c2nnn[nH]2)C[C@@H](NC(=O)N(C)c2ccc(Cl)c(F)c2)C1 (single isomer, unassigned) [12D*] | > 100 |
| C[C@@H]1CCN(c2nnn[nH]2)C[C@@H](NC(=O)N(C)c2ccc(C(F)(F)F)nn2)C1 (single isomer, unassigned) [33B*] | 50 to 100 |
| C[C@H]1C[C@@H](NC(=O)N(C)c2ccc3ncoc3c2)CN(c2nnn[nH]2)C1 [Compound 35A, 1-(benzo[d]oxazol-6-yl)-1-methyl-3-((3R,5S)-5-methyl-1-(1H-tetrazol-5-yl)piperidin-3-yl)urea] | 10 to 50 |
| CCN(C(=O)N[C@@H]1C[C@@H](C)CCN(c2nnn[nH]2)C1)c1ccc(OC(F)(F)F)cc1 (single isomer, unassigned) [43C*] | 10 to 50 |
| C[C@H]1C[C@H](NC(=O)N(C)c2ccc(C(F)F)cc2F)[C@@H]2CC[C@H]1N2c1nnn[nH]1 (single isomer, unassigned) [55D*] | 10 to 50 |
| C[C@H]1CCN(c2nnn[nH]2)C[C@H](NC(=O)N(C)c2ccc(Cl)nc2)C1 (single isomer, unassigned) [29C*] | 50 to 100 |
| C[C@H]1CCN(c2nnn[nH]2)C[C@@H](NC(=O)N(C)c2ccc(C(F)(F)F)nn2)C1 (single isomer, unassigned) [33D*] | 50 to 100 |
| C[C@H]1CCN(c2nnn[nH]2)C[C@@H](NC(=O)N(C)c2ccc(C3CC3)c(F)c2)C1 (single isomer, unassigned) [23D*] | 1 to 10 |
| C[C@H]1C[C@@H](NC(=O)N(C)c2ccc3nccn3c2)CN(c2nnn[nH]2)C1 [Compound 37A, 1-(imidazo[1,2-a]pyridin-6-yl)-1-methyl-3-((3R,5S)-5-methyl-1-(1H-tetrazol-5-yl)piperidin-3-yl)urea] | > 100 |
| C[C@H]1CCN(c2nnn[nH]2)C[C@@H](NC(=O)N(C)c2c(F)cc(OC(F)F)cc2F)C1 (single isomer, unassigned) [19D*] | 1 to 10 |
| C[C@H]1CCN(c2nnn[nH]2)C[C@H](NC(=O)N(C)c2ccc(Cl)cc2Cl)C1 (single isomer, unassigned) [7C*] | 50 to 100 |
| C[C@H]1C[C@H](NC(=O)N(C)c2ccc(C(F)(F)F)c(F)c2)[C@@H]2CC[C@H]1N2c1nnn[nH]1 (single isomer, unassigned) [49D*] | 50 to 100 |

| SMILES | IC50 [µM] |
| --- | --- |
| C[C@H]1CCN(c2nnn[nH]2)C[C@H](NC(=O)N(C)c2ccc(C3CC3)cc2)C1 (single isomer, unassigned) [8C*] | > 100 |
| C[C@@H]1CCN(c2nnn[nH]2)C[C@@H](NC(=O)N(C)c2ccc(OC(F)F)c(F)c2F)C1 (single isomer, unassigned) [40B*] | 1 to 10 |
| C[C@H]1CCN(c2nnn[nH]2)C[C@H](NC(=O)N(C)c2ncc(C(F)(F)F)cn2)C1 (single isomer, unassigned) [30C*] | > 100 |
| C[C@H]1CCN(c2nnn[nH]2)C[C@H](NC(=O)N(C)c2ccc(OC(F)(F)F)c(F)c2)C1 (single isomer, unassigned) [14C*] | > 100 |
| C[C@H]1C[C@@H](NC(=O)N(C)c2ccc(OC(F)(F)F)cc2)[C@@H]2CC[C@H]1N2c1nnn[nH]1 (single isomer, unassigned) [45C*] | 50 to 100 |
| C[C@@H]1CCN(c2nnn[nH]2)C[C@H](NC(=O)N(C)c2ncc(C(F)(F)F)cn2)C1 (single isomer, unassigned) [30A*] | > 100 |
| C[C@@H]1C[C@H](NC(=O)N(C)c2ccc(OC(F)(F)F)c(F)c2F)[C@H]2CC[C@@H]1N2c1nnn[nH]1 (single isomer, unassigned) [59B*] | 50 to 100 |
| C[C@@H]1CCN(c2nnn[nH]2)C[C@@H](NC(=O)N(C)c2ccc(C(F)F)cc2F)C1 (single isomer, unassigned) [18B*] | 1 to 10 |
| C[C@@H]1CCN(c2nnn[nH]2)C[C@@H](NC(=O)N(C)c2ccc(Cl)cc2)C1 (single isomer, unassigned) [4B*] | 1 to 10 |
| C[C@@H]1CCN(c2nnn[nH]2)C[C@@H](NC(=O)N(C)c2ccc(C(F)F)c(F)c2)C1 (single isomer, unassigned) [22B*] | 1 to 10 |
| C[C@H]1C[C@H](NC(=O)N(C)c2ccc(OC(F)(F)F)c(OC(F)F)c2)[C@@H]2CC[C@H]1N2c1nnn[nH]1 (single isomer, unassigned) [63D*] | 50 to 100 |
| C[C@H]1C[C@H](NC(=O)N(C)c2ccc(C3CC3)cc2)[C@@H]2CC[C@H]1N2c1nnn[nH]1 (single isomer, unassigned) [46D*] | 10 to 50 |
| C[C@@H]1C[C@H](NC(=O)N(C)c2c(F)cc(OC(F)F)cc2F)[C@H]2CC[C@@H]1N2c1nnn[nH]1 (single isomer, unassigned) [61B*] | > 100 |
| C[C@@H]1CCN(c2nnn[nH]2)C[C@@H](NC(=O)N(C)c2ccc(C(F)(F)F)c(F)c2F)C1 (single isomer, unassigned) [21B*] | 1 to 10 |
| C[C@@H]1C[C@H](NC(=O)N(C)c2ccc(C3CC3)cc2)[C@H]2CC[C@@H]1N2c1nnn[nH]1 (single isomer, unassigned) [46B*] | 50 to 100 |
| C[C@H]1CCN(c2nnn[nH]2)C[C@H](NC(=O)N(C)c2ccc(C(F)(F)F)c(F)c2)C1 (single isomer, unassigned) [9C*] | > 100 |
| C[C@@H]1C[C@H](NC(=O)N(C)c2ccc(OC(F)(F)F)cc2F)[C@H]2CC[C@@H]1N2c1nnn[nH]1 (single isomer, unassigned) [56B*] | > 100 |
| C[C@H]1CCN(c2nnn[nH]2)C[C@@H](NC(=O)N(C)c2ncc(C(F)(F)F)cn2)C1 (single isomer, unassigned) [30D*] | > 100 |
| C[C@@H]1C[C@H](NC(=O)N(C)c2ccc(OC(F)F)c(F)c2)[C@H]2CC[C@@H]1N2c1nnn[nH]1 (single isomer, unassigned) [52B*] | > 100 |
| C[C@H]1CCN(c2nnn[nH]2)C[C@H](NC(=O)N(C)c2cnc(C(F)(F)F)cn2)C1 (single isomer, unassigned) [32C*] | 50 to 100 |
| C[C@H]1CCN(c2nnn[nH]2)C[C@@H](NC(=O)N(CC2CC2)c2ccc(OC(F)(F)F)cc2)C1 (single isomer, unassigned) [44D*] | 1 to 10 |
| C[C@@H]1CCN(c2nnn[nH]2)C[C@@H](NC(=O)N(C)c2ccc(Cl)cn2)C1 (single isomer, unassigned) [28B*] | 50 to 100 |
| C[C@H]1CCN(c2nnn[nH]2)C[C@@H](NC(=O)N(C)c2ccc(OC(F)(F)F)cc2)C1 (single isomer, unassigned) [10D*] | 1 to 10 |
| C[C@H]1CCN(c2nnn[nH]2)C[C@H](NC(=O)N(C)c2c(F)cc(C3CC3)cc2F)C1 (single isomer, unassigned) [20C*] | 10 to 50 |
| C[C@@H]1CCN(c2nnn[nH]2)C[C@@H](NC(=O)N(C)c2ccc(OC(F)F)cc2)C1 (single isomer, unassigned) [11B*] | 1 to 10 |
